Measured values from PMC10817097, “Caffeic Acid Phosphanium Derivatives: Potential Selective Antitumor, Antimicrobial and Antiprotozoal Agents” (International Journal of Molecular Sciences, 2024).
Read-outs that look alike come from different tables or passages of the source.

Experiments:
[1] = system: A2058 (human metastatic melanoma); assay: MTS cell proliferation/viability assay; assay type: cell-based; conditions: 72 h
Protocol: (§1) The human cancer cell line HCT116 (human colorectal adenocarcinoma), HeLa (human cervical adenocarcinoma), Jurkat (human leukemic T cell lymphoma), and MDA-MB-231 (human mammary gland adenocarcinoma, triple-negative) were cultured in RPMI 1640 medium (Biosera, Kansas City, MO, USA). MCF-7 (human breast adenocarcinoma), A2058 (human metastatic melanoma), PANC-1 (human pancreatic adenocarcinoma), and NIH 3T3 (murine fibroblasts) cell lines were maintained in a growth medium consisting of high glucose Dulbecco’s Modified Eagle Medium with sodium pyruvate (Biosera, Kansas City, MO, USA). MCF-10A cell line (human mammary gland epithelial cells) was maintained in a growth medium consisting of high glucose DMEM F12 Medium (Biosera, Kansas City, MO, USA) + Suppl. (insulin, EGF-[…], HC-hydrocortisone, choleratoxin all Sigma, Steinheim, Germany). The growth medium was supplemented with a 10% fetal bovine serum, penicillin (100 IU/mL), and streptomycin (100 μg/mL) (all Invitrogen, Carlsbad, CA, USA), and cells were maintained in an atmosphere containing 5% CO2 in humidified air at 37 °C. Cell viability, estimated by trypan exclusion, was greater than 95% before each experiment.
(§2) The metabolic activity colorimetric assay (MTS) was used to determine the effects of CA (c = 10–300 µM) and compounds CAP 6, CAP 8, CAP 10, and CAP 12 (c = 1–100 µM) on the metabolic activity of several cell lines. After 72 h of incubation, 10 µL of MTS (Promega, Madison, WI, USA) was added to each well according to the CellTiter 96® AQueous One Solution Cell Proliferation Assay protocol. After a minimum of 1 h incubation, the absorbance was measured at 490 nm using the automated Cytation^TM 3 Cell Imaging Multi-Mode Reader (Biotek, Winooski, VT, USA). The absorbance of the control wells was taken as 1.0 (100%), and the results were expressed as a fold of the control. All experiments were performed in triplicate. Ideal predictive IC50 values were calculated from MTS analyses-based concentration concentration-dependent trends.

[2] = system: HCT116 (human colorectal adenocarcinoma); assay: MTS cell proliferation/viability assay; assay type: cell-based; conditions: HCT-116, 72 h
Protocol: as §1, §2

[3] = system: HeLa (human cervical adenocarcinoma); assay: MTS cell proliferation/viability assay; assay type: cell-based; conditions: 72 h
Protocol: as §1, §2

[4] = system: Jurkat (human leukemic T cell lymphoma); assay: MTS cell proliferation/viability assay; assay type: cell-based; conditions: 72 h
Protocol: as §1, §2

[5] = system: MCF-7 (human breast adenocarcinoma); assay: MTS cell proliferation/viability assay; assay type: cell-based; conditions: MCF7, MCF-7, MTS, 72 h
Protocol: as §1, §2

[6] = system: MDA-MB-231 (human mammary gland adenocarcinoma); assay: MTS cell proliferation/viability assay; assay type: cell-based; conditions: MDA-MB-231, MTS, 72 h
Protocol: as §1, §2

[7] = system: PANC-1 (human pancreatic adenocarcinoma); assay: MTS cell proliferation/viability assay; assay type: cell-based; conditions: PANC-1, MTS, 72 h
Protocol: as §1, §2

A. quina (AcaVNAK03) = assay: Amoebicidal activity assay on trophozoites; assay type: cell-based; conditions: Acanthamoeba quina, 24 h of incubation
Protocol: (§3) The activity against two clinical isolates of free-living amoebae, Acanthamoeba lugdunensis (strain AcaVNAK02) and Acanthamoeba quina (strain AcaVNAK03), both belonging to the T4 genotype, was tested in vitro as previously described. The trophozoites were cultivated in 25 cm^2 tissue culture flasks under axenic conditions in peptone-yeast extract-glucose medium (PYG). The cultivation was carried out under aerobic conditions at laboratory temperature. For the experiments, a fresh 72 h culture was used. Acanthamoebae adherent to flasks represented the trophozoite form and was used in the subsequent assay. Experiments were carried out in 96-well microtiter plates under sterile conditions at 37 °C. Each well was seeded with 100 µL (2 × 10^5 cells mL^−1) of a trophozoite suspension. Then, 100 µL of a freshly prepared medium containing a tested compound at 6 different concentrations was added to all wells, except for the untreated control wells that received 100 µL of the pure medium. Each compound was tested at final concentrations of 500, 250, 125, 62.5, 31.25, and 15.6 µM. The reduction of trophozoites was recorded after 24 h by counting the surviving cells in a Bürker–Türk hemocytometer. The growth control after 24 h (amoebae in inoculum without treatment): A. lugdunensis (AcaVNAK02): 2.5 × 10^5 cells mL^−1, A. quina (AcaVNAK03): 2.1 × 10^5cells/mL comparing to initial inoculum 1 × 10^5 cells mL^−1. The viability of trophozoites was determined by trypan blue exclusion. The EC50 (effective concentration of tested compound that reduces the survival of amoebae by 50%) values were calculated by linear regression analysis using Microsoft Office Excel 2016 (Microsoft Corporation, Redmond, WA, USA) software. All experiments were performed in quadruplicate for each concentration.

[8] = system: Acanthamoeba trophozoites; assay: Amoebicidal activity assay, both strains; assay type: cell-based
Protocol: as §3, with “The growth control after 24 h (amoebae in inoculum without treatment): A. lugdunensis (AcaVNAK02): 2.5 × 10^5 cells mL^−1, A. quina (AcaVNAK03): 2.1 × 10^5cells/mL comparing to initial inoculum 1 × 10^5 cells mL^−1.” left out, “The EC50 (effective concentration of tested compound that reduces the survival of amoebae by 50%) values were calculated by linear regression analysis using Microsoft Office Excel 2016 (Microsoft Corporation, Redmond, WA, USA) software. All experiments were performed in quadruplicate for each concentration.” left out

[9] = system: non-pathogenic Neff's strain of Acanthamoeba castellanii; parameters: method as in Sifaoui et al. (2017) 44; conditions: A. castellanii Neff, 96 h of incubation, ref Sifaoui et al. (2017) 44; cited from earlier work
[10] = parameters: method as in PMID 11743793; conditions: cited from earlier work

SMILES | IC50 [1] | IC50 [2] | IC50 [3] | IC50 [4] | IC50 [5] | IC50 [6] | IC50 [7] | EC50 (A. quina (AcaVNAK03)) | EC50 ([8]; Acanthamoeba, after 24 h) | IC50 (50% growth inhibition) [9] | plasma levels of caffeic acid ([10]; 1 h after consumption of 300 mL red wine (about 2.8 mg caffeic acid)) | plasma levels of caffeic acid ([10]; 1 h after consumption of 300 mL red wine, approx. conversion) | times higher inhibitory activity than phosphanium salts of rosmarinic acid ([8]; comparison to compounds of ref 15)
O=C(O)C=Cc1ccc(O)c(O)c1 [CA, 3-(3,4-dihydroxyphenyl)-2-propenoic acid, reference compound] | > 300 µM | > 300 µM | > 300 µM | > 300 µM | > 300 µM | > 300 µM | > 300 µM | 3000 ± 1510 µM | ≥ 3000 µM | > 100 µg/mL | 4.9 ± 0.3 ng/mL | approx. 27.2 nM | 
CC(=O)Oc1ccc(/C=C/C(=O)OCCCCCC[P+](c2ccccc2)(c2ccccc2)c2ccccc2)cc1OC(C)=O [CAP 6, P,P,P-triphenyl-6-{(2E)-3-[3,4-(diacetyloxy)penyl]prop-2-enoyloxy}hexane-1-phosphanium bromide] | 30.5 ± 1.5 µM | 31 ± 0.4 µM | 34 ± 1.8 µM | 8.5 ± 0.2 µM | 44.5 ± 0.1 µM | 37 ± 0.3 µM | 98.8 ± 2.4 µM | 44.1 ± 9.2 µM |  |  |  |  | more than 15 times

Now those with a lower IC50 [1], led by results:

IC50 [1] | IC50 [2] | IC50 [3] | IC50 [4] | IC50 [5] | IC50 [6] | IC50 [7] | SMILES | EC50 (A. quina (AcaVNAK03)) | EC50 ([8]; Acanthamoeba, after 24 h) | IC50 (50% growth inhibition) [9] | plasma levels of caffeic acid ([10]; 1 h after consumption of 300 mL red wine (about 2.8 mg caffeic acid)) | plasma levels of caffeic acid ([10]; 1 h after consumption of 300 mL red wine, approx. conversion) | times higher inhibitory activity than phosphanium salts of rosmarinic acid ([8]; comparison to compounds of ref 15)
9.4 ± 0.3 µM | 8.3 ± 0.6 µM | 7.1 ± 0.3 µM | 6.9 ± 0.3 µM | 48.7 ± 0.1 µM | 4.8 ± 0.5 µM | > 100 µM | CC(=O)Oc1ccc(/C=C/C(=O)OCCCCCCCC[P+](c2ccccc2)(c2ccccc2)c2ccccc2)cc1OC(C)=O [CAP 8, P,P,P-triphenyl-8-{(2E)-3-[3,4-(diacetyloxy)penyl]prop-2-enoyloxy}okctane-1-phosphanium bromide] | 94.1 ± 14.5 µM |  |  |  |  | 
9 ± 0.5 µM | 9.2 ± 0.3 µM | 8 ± 0.7 µM |  | 9.5 ± 0.2 µM | 4.9 ± 0.5 µM | 91.2 ± 2.6 µM | CC(=O)Oc1ccc(/C=C/C(=O)OCCCCCCCCCC[P+](c2ccccc2)(c2ccccc2)c2ccccc2)cc1OC(C)=O [CAP 10, P,P,P-triphenyl-10-{(2E)-3-[3,4-(diacetyloxy)penyl]prop-2-enoyloxy}decane-1-phosphanium bromide] | 291 ± 36.8 µM |  |  |  |  | 
9 ± 0.5 µM | 8.3 ± 0.6 µM | 3.3 ± 1.1 µM |  | 4.9 ± 0.7 µM | 3.5 ± 0.6 µM | > 100 µM | CC(=O)Oc1ccc(/C=C/C(=O)OCCCCCCCCCCCC[P+](c2ccccc2)(c2ccccc2)c2ccccc2)cc1OC(C)=O [CAP 12, P,P,P-triphenyl-12-{(2E)-3-[3,4-(diacetyloxy)penyl]prop-2-enoyloxy}dodecane-1-phosphanium bromide] | 3320 ± 2060 µM |  |  |  |  | 
